Assay results from paper PMC10199020 (Nature Communications, 2023).

Experiments:
[1] = biological target: T1, NL-IL23R and IL12Rβ1 (IL-23 receptor) on HEK293T cells (Homo sapiens, UniProt P42701+Q5VWK5); assay: IL23-TMR NanoBRET competition assay; assay type: binding; settings: 300 pM IL23-TMR
T1 construct: expressed in transfected cells; host or cells: HEK293T (ATCC CRL-3216), transient transfection
Description: Schematic created with Biorender.com. IL23R is shown in orange, IL12Rβ1 in purple, IL23p19 in blue, IL12p40 in green and the presence of a TAMRA fluorophore by a pink star. […] In b and c, data are mean ± SEM from 5 independent experiments conducted in either duplicate or triplicate. Details on absolute number of data points included for each concentration are provided in the associated Source Data file.
(§1) Transient transfections for experiments outlined in Fig. 6 were conducted by seeding 100 μL of 2 × 10^5 cells/ml concentrated HEK293T cells into poly-D-lysine (PDL) coated white 96 well clear bottom assay microplates (Greiner) and incubating overnight. The following day transfection mixes were made up that contained a 4:1 ratio of IL23R to IL12Rβ1 constructs to a total concentration of 100 ng per well with a 0.3 μL per well of FuGENE HD transfection reagent (Promega) in OptiMEM (Gibco). These mixtures were incubated for 10 min before being added to the plate at 5 μL per well. The cells were then incubated overnight to allow expression. For all other experiments 2 mL containing 4 × 10^5 cells were seeded into 6 well plates and incubated 5 h before being transiently transfected with 100 μL per well of a transfection mix containing 2 μg of DNA and 6 μL of FuGENE HD. These cells were then incubated overnight before being re-suspended the following day and seeded into PDL coated white assay microplates at 100 μL containing 3 × 10^4 transfected cells. Cells were then incubated overnight before the experiment. Estimates of total expression levels for the different NL-constructs were made by comparing the luminescence levels achieved to that of a NanoLuciferase standard curve measured under the same conditions (Supplementary Fig. 1).
Media was removed from white 96-well microplates containing transfected cells and replaced with fluoroprobe in the presence or absence of antagonist in 50 μL Hanks Balanced Salt Solution (HBSS) with 1 mg/mL BSA (Merck).
(§2) Antagonist competition data were fit with the equation:4 Y=Bmin+Bmax−Bmin/1+10^(LogXC50−[A])C Where ‘Bmax’ is the maximum BRET signal, ‘Bmin’ is the minimum BRET signal, ‘LogXC50’ is the log of the 50% inhibiting concentration of antagonist, ‘[A]’ is the concentration of antagonist and ‘C’ is the Hill slope.

[2] = biological target: HiBit-IL23R and LgBit-IL12Rβ1 (Homo sapiens, UniProt Q5VWK5); settings: 10 μM P630
From the text: Finally, we utilised a NanoBiT BRET system in which a complemented luciferase with fragments bound to both receptor subunits (Fig. 3) can be used as a BRET donor to measure interactions with binary receptor complexes.
Data in b are mean ± SEM from three independent experiments. In each individual experiment, triplicate determinations were made for total binding and duplicate or triplicate determinations made for non-specific binding. Data in c are the mean values obtained in five independent experiments, each conducted with six replicates. […] Data in d are the mean ± SEM from five (NL-IL23R and NL-23R + IL12Rβ1) or three (HiBit-IL23R + LgBit-IL12Rβ1) independent experiments. Source data are provided as a Source Data file.

[3] = biological target: T1, NL-IL23R and IL12Rβ1 (IL-23 receptor) on HEK293T cells; assay: P630-TMR NanoBRET competition assay; assay type: binding; settings: Fig. 5a
Description: as §1
Media was removed from white 96-well microplates containing transfected cells and replaced with fluoroprobe in the presence or absence of antagonist in 50 μL Hanks Balanced Salt Solution (HBSS) with 1 mg/mL BSA (Merck). After a 1-hour incubation at 37 °C without CO2, 5 μL of HBSS containing 77 μM furimizine was added to each well (final concentration 7 μM), the plate incubated for 5-minutes and the BRET signal measured using a PheraStar FS plate reader (BMG Labtech; data acquisition software version 5.41; MARS analysis software version 3.32) with a 450 ± 30 nm and >550 nm long pass filters.
as §2

T1 sequence (Q5VWK5 24-629, other chains not shown): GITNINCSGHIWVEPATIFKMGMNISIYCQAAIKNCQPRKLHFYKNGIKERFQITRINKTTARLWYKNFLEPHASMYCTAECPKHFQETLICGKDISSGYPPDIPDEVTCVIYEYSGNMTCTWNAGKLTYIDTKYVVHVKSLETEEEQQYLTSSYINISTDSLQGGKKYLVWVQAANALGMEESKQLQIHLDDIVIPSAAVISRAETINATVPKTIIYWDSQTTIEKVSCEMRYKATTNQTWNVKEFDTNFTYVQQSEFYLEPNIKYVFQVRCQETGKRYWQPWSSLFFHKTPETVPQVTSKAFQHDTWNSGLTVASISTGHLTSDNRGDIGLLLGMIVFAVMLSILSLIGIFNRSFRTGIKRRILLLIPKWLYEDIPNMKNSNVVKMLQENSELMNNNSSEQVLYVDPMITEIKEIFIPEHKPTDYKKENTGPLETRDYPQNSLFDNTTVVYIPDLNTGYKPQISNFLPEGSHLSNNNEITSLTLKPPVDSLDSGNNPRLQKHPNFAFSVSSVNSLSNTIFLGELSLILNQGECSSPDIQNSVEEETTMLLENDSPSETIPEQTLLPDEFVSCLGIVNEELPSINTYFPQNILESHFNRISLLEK
HiBit-IL23R and LgBit-IL12Rβ1, sequence (Q5VWK5 24-629, other chains not shown): as above

In the case of `COc1ccc(C[C@H](NC(=O)[C@H]2NC(=O)[C@H](CCC(N)=O)NC(=O)[C@H](Cc3c[nH]c4ccccc34)NC(=O)[C@H]([C@@H](C)O)NC(=O)[C@H](CC(N)=O)NC(=O)[C@@H](NC(C)=O)C(C)(C)SSC2(C)C)C(=O)N[C@@H](Cc2ccc3ccccc3c2)C(=O)NC(C)(C)C(=O)N[C@@H](CCC(=O)O)C(=O)N[C@@H](CC(N)=O)C(=O)N[C@@H](CC(N)=O)C(N)=O)cc1` [P630], the “Inhibition of IL23-TMR binding (Mean)” value ([1]; [P630] -5.09151 logM) is reported as 84.0625, the “Inhibition of IL23-TMR binding (Mean)” value ([1]; [P630] -5.56864 logM) is reported as 77.8076 and the “Inhibition of IL23-TMR binding (Mean)” value ([1]; [P630] -6.04576 logM) is reported as 62.3503. The “Inhibition of IL23-TMR binding (Mean)” value ([1]; [P630] -6.52288 logM) was 55.1992, the “Inhibition of IL23-TMR binding (Mean)” value ([1]; [P630] -7 logM) was 30.8209 and the “Inhibition of IL23-TMR binding (Mean)” value ([1]; [P630] -7.47712 logM) was 11.8559. For the same compound, the “Inhibition of IL23-TMR binding (Mean)” value ([1]; [P630] -7.95424 logM) was 6.902, the “Inhibition of IL23-TMR binding (Mean)” value ([1]; [P630] -8.90849 logM) was 4.004 and the “Inhibition of IL23-TMR binding (Mean)” value ([1]; [P630] -9.38561 logM) was -5.834. For the same compound, the “Inhibition of IL23-TMR binding (Mean)” value ([1]; [P630] -9.86273 logM) was 10.7231, the “Effect on receptor dimerisation (NanoLuc complementation)” value [2] was “did not affect receptor dimerisation” and the “Displacement of 75 nM P630-TMR (Mean)” value ([3]; [P630] -4.69897 logM) was 100.016. For the same compound, the “Displacement of 75 nM P630-TMR (Mean)” value ([3]; [P630] -5.69897 logM) was 98.9078, the “Displacement of 75 nM P630-TMR (Mean)” value ([3]; [P630] -6.69897 logM) was 89.0568 and the “Displacement of 75 nM P630-TMR (Mean)” value ([3]; [P630] -7.69897 logM) was 51.2574. The “Displacement of 75 nM P630-TMR (Mean)” value ([3]; [P630] -8.69897 logM) was 11.835, the “Displacement of 75 nM P630-TMR (Mean)” value ([3]; [P630] -9.69897 logM) was -0.3727 and the “Displacement of 75 nM P630-TMR (Mean)” value ([3]; [P630] -10.699 logM) was 3.757. For the same compound, the “Displacement of 75 nM P630-TMR (Mean)” value ([3]; [P630] -11.699 logM) was 1.217.
